Laboratory results published in ChEMBL document CHEMBL1201862, “PubChem BioAssay data set” (2004).
Activity calls are given as the source filed them.

Columns and labels:
[1] = THP-1 cell cytotoxicity, dose response, cytotoxicity control for non-replicating M. tuberculosis project (AID 489025); format: functional
cells [2] = format: functional
Protein skinhead-1 = molecular target: T1, Protein skinhead-1 (Caenorhabditis elegans, UniProt P34707); format: functional
T1 sequence (P34707 whole entry): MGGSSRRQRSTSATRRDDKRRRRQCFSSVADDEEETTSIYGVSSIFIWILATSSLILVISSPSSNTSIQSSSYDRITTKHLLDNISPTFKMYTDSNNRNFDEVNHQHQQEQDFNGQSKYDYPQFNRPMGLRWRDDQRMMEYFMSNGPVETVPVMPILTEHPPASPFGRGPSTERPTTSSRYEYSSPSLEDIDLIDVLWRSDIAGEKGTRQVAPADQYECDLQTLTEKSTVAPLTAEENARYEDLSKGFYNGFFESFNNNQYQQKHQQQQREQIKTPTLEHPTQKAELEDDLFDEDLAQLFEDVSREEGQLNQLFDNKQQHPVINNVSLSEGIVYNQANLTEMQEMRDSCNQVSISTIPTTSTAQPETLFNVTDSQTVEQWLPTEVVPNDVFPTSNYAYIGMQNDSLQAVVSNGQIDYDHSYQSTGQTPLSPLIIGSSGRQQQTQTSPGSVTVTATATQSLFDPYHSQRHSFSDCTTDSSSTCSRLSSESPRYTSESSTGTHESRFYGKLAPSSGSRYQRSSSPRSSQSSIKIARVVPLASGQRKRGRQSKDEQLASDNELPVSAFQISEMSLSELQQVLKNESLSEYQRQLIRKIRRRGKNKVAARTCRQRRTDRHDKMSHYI

[3] = molecular target: T2, Ubiquitin-conjugating enzyme E2 N (Homo sapiens, UniProt P61088); format: functional;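 note: Dose-response confirmation in a TR-FRET assay detecting UBC13-driven polyubiquitin chain formation, inhibition measured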
T2 sequence (P61088 whole entry): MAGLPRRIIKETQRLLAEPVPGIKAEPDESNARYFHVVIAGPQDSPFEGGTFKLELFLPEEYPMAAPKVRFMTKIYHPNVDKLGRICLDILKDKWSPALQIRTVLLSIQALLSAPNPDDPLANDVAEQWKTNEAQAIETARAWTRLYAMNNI

Vero [4] = experiment: cells; format: functional, cell-based, Chlorocebus sabaeus
Vero [5] = experiment: cells; format: functional, Chlorocebus sabaeus
[6] = molecular target: Voltage-dependent T-type calcium channel subunit alpha-1H (Homo sapiens, UniProt O95180); format: functional;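 note: channel activity triggered by adding a high calcium stimulation buffer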
[7] = molecular target: T3, Heat shock factor protein 1 (Mus musculus, UniProt P38532); experiment: enhancement of HSF1-driven luciferase signal – cell-based, NIH3T3, luminescence, dose retest, confirmation (AID 435004); format: functional;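 note: stress induced by proteasome inhibitor MG132 added 30 min after compound; luciferase reporter driven by HSF1 response element in NIH3T3 cells; actives raise luminescence as potentiators of the MG132 stress response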
T3 sequence (P38532 whole entry): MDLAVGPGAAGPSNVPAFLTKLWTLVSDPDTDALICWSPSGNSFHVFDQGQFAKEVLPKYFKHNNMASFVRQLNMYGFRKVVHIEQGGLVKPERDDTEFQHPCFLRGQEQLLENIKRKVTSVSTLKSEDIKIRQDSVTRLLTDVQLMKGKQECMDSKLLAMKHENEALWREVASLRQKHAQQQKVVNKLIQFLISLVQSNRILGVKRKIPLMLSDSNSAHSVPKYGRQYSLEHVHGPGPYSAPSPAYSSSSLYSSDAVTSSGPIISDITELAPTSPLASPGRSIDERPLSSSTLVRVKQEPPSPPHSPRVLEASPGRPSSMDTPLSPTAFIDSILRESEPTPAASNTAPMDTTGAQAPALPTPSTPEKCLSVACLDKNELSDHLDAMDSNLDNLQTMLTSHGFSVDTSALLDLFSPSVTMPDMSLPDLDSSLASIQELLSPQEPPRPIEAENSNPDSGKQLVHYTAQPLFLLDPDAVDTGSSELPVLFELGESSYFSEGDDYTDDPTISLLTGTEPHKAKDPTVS

[8] = molecular target: T4, Short transient receptor potential channel 4 (Mus musculus, UniProt Q9QUQ5); experiment: block of DAMGO-driven TRPC4 calcium entry – cell-based, HEK293 TRPC4/mu-opioid, Fluo-4 calcium, dose response (AID 434942); format: functional;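 note: potency of inhibitors blocking the TRPC4 calcium response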
T4 sequence (Q9QUQ5 whole entry): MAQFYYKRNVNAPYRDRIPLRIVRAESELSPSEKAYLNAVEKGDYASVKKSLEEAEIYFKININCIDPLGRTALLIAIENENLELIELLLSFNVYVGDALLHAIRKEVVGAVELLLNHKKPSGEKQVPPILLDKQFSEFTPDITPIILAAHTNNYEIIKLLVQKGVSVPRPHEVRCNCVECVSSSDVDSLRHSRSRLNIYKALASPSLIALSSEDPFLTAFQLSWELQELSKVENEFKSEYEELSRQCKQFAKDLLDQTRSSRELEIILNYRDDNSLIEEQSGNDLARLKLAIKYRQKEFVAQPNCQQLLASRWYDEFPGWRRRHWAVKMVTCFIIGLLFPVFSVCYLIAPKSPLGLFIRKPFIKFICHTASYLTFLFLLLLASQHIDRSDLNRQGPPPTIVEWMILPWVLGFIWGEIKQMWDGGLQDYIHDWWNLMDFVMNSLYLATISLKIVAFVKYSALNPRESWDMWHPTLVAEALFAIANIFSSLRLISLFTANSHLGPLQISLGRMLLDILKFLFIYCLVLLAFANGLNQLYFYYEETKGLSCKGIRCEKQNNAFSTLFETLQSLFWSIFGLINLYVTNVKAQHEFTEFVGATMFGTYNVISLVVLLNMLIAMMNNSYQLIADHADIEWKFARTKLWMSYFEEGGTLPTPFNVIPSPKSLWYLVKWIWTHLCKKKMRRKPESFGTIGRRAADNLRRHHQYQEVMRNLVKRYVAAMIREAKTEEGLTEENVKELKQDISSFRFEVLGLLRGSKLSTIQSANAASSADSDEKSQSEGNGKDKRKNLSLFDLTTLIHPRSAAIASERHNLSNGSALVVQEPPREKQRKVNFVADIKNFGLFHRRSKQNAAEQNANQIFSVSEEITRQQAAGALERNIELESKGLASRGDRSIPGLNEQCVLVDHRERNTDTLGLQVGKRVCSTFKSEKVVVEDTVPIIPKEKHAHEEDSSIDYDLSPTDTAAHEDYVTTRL

Large T antigen = Large T antigen (Simian virus 40, UniProt P03070); format: functional, Betapolyomavirus macacae;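 note: Confirmatory-stage PubChem screen for compounds that inhibit SV40 T antigen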
[9] = Trypanosoma cruzi growth suppression in host cells – NIH3T3 host cells, beta-gal luminescence, confirmation (AID 2044); format: functional, cell-based;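 note: intracellular parasites grown in NIH/3T3 mouse fibroblasts as host cells; luminescent beta-galactosidase reporter signal from transgenic T. cruzi replicating inside host cells; inhibitors lower the luminescence signal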
[10] = NIH3T3 cell viability loss – ATP luminescence, mouse fibroblasts, counter-screen, dose response (AID 2010); format: functional, cell-based;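 note: cells exposed to compound for about 90 hours before reading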
cells [11] = experiment: cells
[12] = luciferase reporter signal suppression in cells – H4 neuroglioma cells, luminescence, dose response (AID 1990); format: functional, cell-based
[13] = Luminescence Cell-Based Dose Response HTS to Identify Inhibitors of 5'UTR Stem-Loop Driven Prion Protein mRNA Translation in H4 Neuroglioblastoma Cells. [Related pubchem assays: 1827 (Project Summary), 1813 (Primary HTS)]; format: functional
[14] = alpha-synuclein stem-loop luciferase translation blockers – H4 neuroglioma cells, luminescence, confirmation (AID 1988); format: functional, cell-based
INS1 = experiment: INS-1E survival protection against cytokine death – cell-based, luminescence, retest, dose response (AID 449756); format: functional; details: Rattus norvegicus;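 note: cell death triggered by IL-1 beta plus TNF-alpha plus IFN-gamma mixture; protective hits raise ATP signal compared with cytokine alone wells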
[15] = Luminescence Cell-Based Dose Confirmation HTS to Identify Activators of 5'UTR Stem-Loop Driven Alpha-Synuclein mRNA Translation in H4 Neuroglioblastoma Cells. [Related pubchem assays: 1829 (Project Summary), 1814 (Primary HTS)]; format: functional
[16] = Luminescence Cell-Based Dose Response HTS to Identify Activators of Luciferase Translation or Activity in H4 […] Cells. [Related pubchem assays: 1829 (Project Summary), 1814 (Primary HTS)]; format: functional
H4 = experiment: Luminescence Cell-Based Dose Response HTS to Identify Activators of 5'UTR Stem-Loop Driven Prion Protein mRNA Translation in H4 Neuroglioblastoma Cells. [Related pubchem assays: 1829 (Project Summary), 1814 (Primary HTS)]; format: functional; details: Homo sapiens

Sequence of Large T antigen (P03070 whole entry): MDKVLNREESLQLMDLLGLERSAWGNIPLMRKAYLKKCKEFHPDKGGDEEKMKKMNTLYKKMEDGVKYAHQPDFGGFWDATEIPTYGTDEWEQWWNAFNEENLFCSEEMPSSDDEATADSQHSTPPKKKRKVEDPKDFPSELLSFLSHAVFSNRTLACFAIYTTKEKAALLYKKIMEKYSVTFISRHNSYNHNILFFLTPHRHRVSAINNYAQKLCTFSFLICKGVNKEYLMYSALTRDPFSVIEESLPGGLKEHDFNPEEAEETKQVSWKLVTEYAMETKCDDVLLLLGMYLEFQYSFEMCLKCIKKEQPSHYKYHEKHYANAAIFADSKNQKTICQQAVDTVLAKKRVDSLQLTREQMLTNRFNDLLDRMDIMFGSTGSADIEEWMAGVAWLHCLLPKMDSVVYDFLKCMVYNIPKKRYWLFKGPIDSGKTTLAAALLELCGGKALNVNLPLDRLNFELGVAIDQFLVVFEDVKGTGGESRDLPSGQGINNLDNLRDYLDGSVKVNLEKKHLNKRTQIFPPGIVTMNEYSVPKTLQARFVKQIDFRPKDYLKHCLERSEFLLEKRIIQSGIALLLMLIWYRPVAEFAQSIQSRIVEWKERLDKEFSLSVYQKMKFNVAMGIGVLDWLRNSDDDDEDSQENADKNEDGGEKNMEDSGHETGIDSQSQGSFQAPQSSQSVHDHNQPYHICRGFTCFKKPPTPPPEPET
Sequence of Voltage-dependent T-type calcium channel subunit alpha-1H (O95180 whole entry): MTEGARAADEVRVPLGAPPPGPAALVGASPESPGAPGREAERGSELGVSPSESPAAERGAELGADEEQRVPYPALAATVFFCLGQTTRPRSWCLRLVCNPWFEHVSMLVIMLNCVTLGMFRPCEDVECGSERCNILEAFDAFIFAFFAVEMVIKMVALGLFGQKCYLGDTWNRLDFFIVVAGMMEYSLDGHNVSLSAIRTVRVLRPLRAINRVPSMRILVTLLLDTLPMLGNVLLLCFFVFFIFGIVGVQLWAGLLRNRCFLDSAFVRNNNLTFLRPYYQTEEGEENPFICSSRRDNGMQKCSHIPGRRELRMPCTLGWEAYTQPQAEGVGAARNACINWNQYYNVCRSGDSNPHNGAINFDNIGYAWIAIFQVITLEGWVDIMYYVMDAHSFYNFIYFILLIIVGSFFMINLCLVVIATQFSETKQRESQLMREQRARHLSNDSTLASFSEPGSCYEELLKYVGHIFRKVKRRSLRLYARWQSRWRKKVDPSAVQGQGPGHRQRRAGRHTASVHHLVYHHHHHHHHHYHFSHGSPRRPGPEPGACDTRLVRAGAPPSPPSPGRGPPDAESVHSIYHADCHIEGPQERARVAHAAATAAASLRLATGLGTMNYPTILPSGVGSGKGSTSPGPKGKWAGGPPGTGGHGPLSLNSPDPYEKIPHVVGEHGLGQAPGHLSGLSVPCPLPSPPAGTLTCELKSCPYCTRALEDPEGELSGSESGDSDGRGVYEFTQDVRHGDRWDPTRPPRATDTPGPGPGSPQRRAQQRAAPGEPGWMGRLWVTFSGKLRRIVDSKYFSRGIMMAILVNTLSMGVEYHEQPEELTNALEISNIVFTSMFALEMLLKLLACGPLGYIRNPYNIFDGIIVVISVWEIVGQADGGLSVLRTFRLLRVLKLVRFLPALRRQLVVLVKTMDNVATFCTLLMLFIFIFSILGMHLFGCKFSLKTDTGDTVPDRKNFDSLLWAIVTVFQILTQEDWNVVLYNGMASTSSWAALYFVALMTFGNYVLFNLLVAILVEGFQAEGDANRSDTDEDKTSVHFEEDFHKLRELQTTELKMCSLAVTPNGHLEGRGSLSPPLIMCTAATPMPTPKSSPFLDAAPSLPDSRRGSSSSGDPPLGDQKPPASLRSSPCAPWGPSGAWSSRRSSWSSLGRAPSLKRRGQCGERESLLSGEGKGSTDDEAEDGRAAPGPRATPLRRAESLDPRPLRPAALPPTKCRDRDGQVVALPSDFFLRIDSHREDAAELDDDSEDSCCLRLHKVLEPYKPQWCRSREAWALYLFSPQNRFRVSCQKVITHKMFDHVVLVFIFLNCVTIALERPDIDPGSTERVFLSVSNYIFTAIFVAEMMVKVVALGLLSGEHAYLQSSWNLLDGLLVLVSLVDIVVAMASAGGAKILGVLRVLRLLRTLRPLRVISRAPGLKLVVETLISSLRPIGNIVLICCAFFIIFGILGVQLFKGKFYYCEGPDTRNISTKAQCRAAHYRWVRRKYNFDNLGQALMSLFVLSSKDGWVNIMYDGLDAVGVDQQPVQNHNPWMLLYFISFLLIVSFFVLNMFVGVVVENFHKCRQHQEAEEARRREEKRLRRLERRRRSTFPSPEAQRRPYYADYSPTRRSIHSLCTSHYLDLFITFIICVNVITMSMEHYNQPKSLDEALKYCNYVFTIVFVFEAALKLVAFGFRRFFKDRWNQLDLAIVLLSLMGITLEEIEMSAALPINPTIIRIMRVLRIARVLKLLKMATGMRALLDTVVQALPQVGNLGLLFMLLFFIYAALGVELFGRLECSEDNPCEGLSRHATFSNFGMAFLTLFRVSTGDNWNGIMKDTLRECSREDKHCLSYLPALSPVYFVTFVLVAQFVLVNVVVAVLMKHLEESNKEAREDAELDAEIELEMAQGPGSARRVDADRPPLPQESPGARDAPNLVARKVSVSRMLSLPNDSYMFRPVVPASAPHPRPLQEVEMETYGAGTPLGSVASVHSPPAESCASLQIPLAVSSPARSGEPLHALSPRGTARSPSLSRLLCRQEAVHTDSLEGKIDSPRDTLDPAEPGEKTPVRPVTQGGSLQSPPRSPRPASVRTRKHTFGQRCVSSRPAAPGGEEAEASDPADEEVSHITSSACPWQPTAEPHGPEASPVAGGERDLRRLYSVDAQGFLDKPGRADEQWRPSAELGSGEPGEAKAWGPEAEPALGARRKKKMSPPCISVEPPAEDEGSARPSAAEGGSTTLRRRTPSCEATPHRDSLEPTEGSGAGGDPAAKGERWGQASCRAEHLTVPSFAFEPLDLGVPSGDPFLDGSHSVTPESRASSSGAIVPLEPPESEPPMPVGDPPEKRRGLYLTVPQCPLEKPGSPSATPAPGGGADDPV

CCCc1ccc(OCc2ccc(C(=O)N/N=C/c3cccnc3)o2)cc1
CC50 [1]: > 40 µM (active)
IC50 (cells [2]): 47.6 µM (active)

COc1cccc(C(c2sc3ncnn3c2O)N2CC(C)OC(C)C2)c1 (centres undefined)
IC50 (Protein skinhead-1): > 100 µM (inactive)

C[C@]12CCCC[C@@H]1CC[C@@H]1[C@@H]2CC[C@@]2(C)[C@H]1CC[C@@]2(O)CNCCO
IC50 [3]: > 20 µM (inactive)
IC50 (Vero [4]; Chlorocebus sabaeus, Vero): > 12.5 µM (active)
IC50 (Vero [4]; vero): 9.19 µM (active)
CC50 (Vero [5]): 19.4 µM (active)
CC50 (Vero [5]; Chlorocebus sabaeus, Vero): 18.4 µM (active)

c1ccc(Cn2nnnc2C(c2cccs2)N2CCc3ccccc3C2)cc1 (centres undefined)
EC50 [6]: 0.844 µM (active)
EC50 [7]: > 260 µM (inactive)

COc1ccc(Cn2nnnc2C(c2cc3cc(C)ccc3nc2O)N2CCN(C)CC2)cc1 (centres undefined)
EC50 [8]: 1.88 µM (active)

COc1ccc(Br)cc1CN1CCN(C(=O)Cc2ccccc2)CC1
EC50 [8]: 6.68 µM (active)

N=c1c2c(n(Cc3ccccc3)c3c1CCC3)CCC2
EC50 [8]: 3.35 µM (active)

COc1cccc(NC(=O)CSc2nc3ccccc3c(=O)n2CCCC(=O)NCCCN2CCOCC2)c1
IC50 [3]: > 20 µM (inactive)

O=C(CSc1nc2ccccc2n1-c1ccccc1)Nc1ncc(Cl)cc1Cl
IC50 (Vero [4]; Chlorocebus sabaeus, Vero): 4.63 µM (active)
CC50 (Vero [5]; Chlorocebus sabaeus, Vero): 22.1 µM (active)

CCOC(=O)Cc1cc(=O)n(-c2nc3ccccc3s2)[nH]1
IC50 (Large T antigen): > 100 µM (active)

CCc1ccc2oc(=O)cc(CN3CCN(Cc4ccccc4)CC3)c2c1
EC50 [9]: < 0.1 µM (active)
EC50 [10]: > 60 µM (not active)
EC50 (cells [11]): 0.127 µM (active)

COC(=O)c1c(NC(=O)c2ccc(OC(C)C)cc2)sc2c1CC(C)(C)NC2(C)C
EC50 [12]: 8.35 µM (active)
EC50 [13]: 8.41 µM (active)
EC50 [14]: 8.31 µM (active)
IC50 [3]: > 20 µM (inactive)
IC50 (Vero [4]; Chlorocebus sabaeus, Vero): 23.3 µM (active)
CC50 (Vero [5]; Chlorocebus sabaeus, Vero): > 25 µM (active)

CCCCN1CCC(O)(c2ccccc2)C(C(=O)c2ccccc2)C1 (centres undefined)
CC50 [1]: > 40 µM (active)
IC50 (cells [2]): 29.6 µM (active)

CCOC(=O)C1(CCOc2ccccc2)CCN(Cc2cccs2)CC1
EC50 [8]: 4.22 µM (active)

CCN(CC)CCN(C(=O)C1CCCCC1)c1nc2cc3c(cc2s1)OCO3
EC50 [9]: < 0.1 µM (active)
EC50 [10]: > 60 µM (not active)
EC50 (cells [11]): 0.514 µM (active)

COc1cc(/C=N/N(C)C)cc(Br)c1O
IC50 (Large T antigen): 5.17 µM (active)

Cc1ccc(O)c(C(=O)CC(=O)c2cccc(F)c2)c1
IC50 (Vero [4]; Chlorocebus sabaeus, Vero): 21.1 µM (active)
CC50 (Vero [5]; Chlorocebus sabaeus, Vero): > 25 µM (active)

N#Cc1ccsc1NC(=O)C1CCN(C(=O)c2ccc(Cl)cc2)CC1
IC50 [3]: > 20 µM (inactive)

CC(=O)c1cccc(NS(=O)(=O)c2ccc3c(c2)oc(=O)n3C)c1
IC50 (Protein skinhead-1): > 100 µM (inactive)

CNCCNC[C@H](Cc1cccc2ccccc12)NCCc1ccccc1
IC50 (Vero [4]; Chlorocebus sabaeus, Vero): 20.4 µM (active)

Cc1cc(NC(=O)CSc2nc3ccccc3c(=O)n2Cc2ccc(F)cc2)no1
IC50 (Protein skinhead-1): 82.4 µM (inactive)

CCCCCc1cc(=O)oc2c(C(CCN(CC)CC)c3ccc(OC)cc3)c(OC)cc(OC)c12 (centres undefined)
IC50 [3]: > 20 µM (inactive)
AC50 (INS1): 10.8 µM (active)

Cc1cc(C)n(Cc2ccc(C(=O)NCc3ccco3)o2)n1
IC50 (Protein skinhead-1): > 100 µM (inactive)

Clc1cccc(OCc2nc(-c3ccncc3)no2)c1
IC50 (Protein skinhead-1): 26.6 µM (active)

Cc1ccc(C(=O)c2c(NC(=O)c3ccncc3)sc3c2CCCC3)cc1
EC50 [9]: < 0.1 µM (active)
EC50 [10]: > 60 µM (not active)
EC50 (cells [11]): 0.266 µM (active)

C=CCNc1nnc(Sc2ncccc2[N+](=O)[O-])s1
EC50 [15]: > 120 µM (not active)
EC50 [16]: 10.3 µM (inconclusive)
EC50 (H4): 17.8 µM (active)
CC50 [1]: 33.4 µM (active)
IC50 (cells [2]): 3.81 µM (active)

Cc1ccc2c(CN3CCN(Cc4ccccc4)CC3)cc(=O)oc2c1C
EC50 [9]: < 0.1 µM (active)
EC50 [10]: > 60 µM (not active)
EC50 (cells [11]): 0.065 µM (active)
